{"source": "the supplement of paper PMC10307832", "experiment_in_all_cases": "relative viability (nuclei count vs DMSO), 5 days (fraction); higher = more cells survive", "key": {"HCC-44": {"system": "HCC-44", "outline": "(§1)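 For relative viability, nuclei counts in treated wells were divided by those in vehicle wells. Lung cancer cell lines had been pin-tool dosed in 1536-well plates the day after seeding and cultured for 5 days, then fixed and stained in one step (final 0.05% Triton X-100, 1% formaldehyde, 1 ug/ml Hoechst) and imaged at 4×. Doses were one drug alone or a fixed anchor-drug dose plus five library-drug doses (not always all listed) in √10 steps, and values are duplicate-plate medians.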"}, "HCC-78": {"system": "HCC-78", "outline": "as §1"}, "NCI-H1563": {"system": "NCI-H1563", "outline": "as §1"}, "NCI-H1623": {"system": "NCI-H1623", "outline": "as §1"}, "NCI-H1648": {"system": "NCI-H1648", "outline": "as §1"}, "NCI-H2087": {"system": "NCI-H2087", "outline": "as §1"}, "NCI-H322M": {"system": "NCI-H322M", "outline": "as §1"}}, "data": [{"smiles": "Cc1cn(-c2cc(NC(=O)c3ccc(C)c(Nc4nccc(-c5cccnc5)n4)c3)cc(C(F)(F)F)c2)cn1", "note": "[Nilotinib] + COc1cccc2cc(-c3nc([C@H]4CC[C@H](C(=O)O)CC4)n4ncnc(N)c34)[nH]c12 [OSI-027] (partner 0.5 µM)", "values": [{"measurement": "relative viability", "setting": "HCC-44; first compound 0.001 µM", "value": 0.498}, {"measurement": "relative viability", "setting": "HCC-44; first compound 0.003162 µM", "value": 0.391}, {"measurement": "relative viability", "setting": "HCC-44; first compound 0.01 µM", "value": 0.43}, {"measurement": "relative viability", "setting": "HCC-44; first compound 0.03162 µM", "value": 0.505}, {"measurement": "relative viability", "setting": "HCC-44; first compound 0.1 µM", "value": 0.382}, {"measurement": "relative viability", "setting": "HCC-78; first compound 0.001 µM", "value": 0.444}, {"measurement": "relative viability", "setting": "HCC-78; first compound 0.003162 µM", "value": 0.368}, {"measurement": "relative viability", "setting": "HCC-78; first compound 0.01 µM", "value": 0.352}, {"measurement": "relative viability", "setting": "HCC-78; first compound 0.03162 µM", "value": 0.373}, {"measurement": "relative viability", "setting": "HCC-78; first compound 0.1 µM", "value": 0.403}, {"measurement": "relative viability", "setting": "NCI-H1563; first compound 0.001 µM", "value": 0.72}, {"measurement": "relative viability", "setting": "NCI-H1563; first compound 0.003162 µM", "value": 0.731}, {"measurement": "relative viability", "setting": "NCI-H1563; first compound 0.01 µM", "value": 0.681}, {"measurement": "relative viability", "setting": "NCI-H1563; first compound 0.03162 µM", "value": 0.74}, {"measurement": "relative viability", "setting": "NCI-H1563; first compound 0.1 µM", "value": 0.666}, {"measurement": "relative viability", "setting": "NCI-H1623; first compound 0.001 µM", "value": 0.395}, {"measurement": "relative viability", "setting": "NCI-H1623; first compound 0.003162 µM", "value": 0.422}, {"measurement": "relative viability", "setting": "NCI-H1623; first compound 0.01 µM", "value": 0.444}, {"measurement": "relative viability", "setting": "NCI-H1623; first compound 0.03162 µM", "value": 0.432}, {"measurement": "relative viability", "setting": "NCI-H1623; first compound 0.1 µM", "value": 0.423}, {"measurement": "relative viability", "setting": "NCI-H1648; first compound 0.003162 µM", "value": 0.257}, {"measurement": "relative viability", "setting": "NCI-H1648; first compound 0.01 µM", "value": 0.257}, {"measurement": "relative viability", "setting": "NCI-H1648; first compound 0.03162 µM", "value": 0.256}, {"measurement": "relative viability", "setting": "NCI-H1648; first compound 0.1 µM", "value": 0.253}, {"measurement": "relative viability", "setting": "NCI-H2087; first compound 0.001 µM", "value": 0.477}, {"measurement": "relative viability", "setting": "NCI-H2087; first compound 0.003162 µM", "value": 0.557}, {"measurement": "relative viability", "setting": "NCI-H2087; first compound 0.01 µM", "value": 0.499}, {"measurement": "relative viability", "setting": "NCI-H2087; first compound 0.03162 µM", "value": 0.221}, {"measurement": "relative viability", "setting": "NCI-H2087; first compound 0.1 µM", "value": 0.239}, {"measurement": "relative viability", "setting": "NCI-H322M; first compound 0.001 µM", "value": 0.516}, {"measurement": "relative viability", "setting": "NCI-H322M; first compound 0.003162 µM", "value": 0.436}, {"measurement": "relative viability", "setting": "NCI-H322M; first compound 0.01 µM", "value": 0.422}, {"measurement": "relative viability", "setting": "NCI-H322M; first compound 0.03162 µM", "value": 0.384}, {"measurement": "relative viability", "setting": "NCI-H322M; first compound 0.1 µM", "value": 0.481}]}, {"smiles": "CN1CCN(CCOc2cc(OC3CCOCC3)c3c(Nc4c(Cl)ccc5c4OCO5)ncnc3c2)CC1", "note": "[Saracatinib] + COc1cccc2cc(-c3nc([C@H]4CC[C@H](C(=O)O)CC4)n4ncnc(N)c34)[nH]c12 [OSI-027] (partner 0.5 µM)", "values": [{"measurement": "relative viability", "setting": "HCC-44; first compound 0.02 µM", "value": 0.483}, {"measurement": "relative viability", "setting": "HCC-44; first compound 0.2 µM", "value": 0.522}, {"measurement": "relative viability", "setting": "HCC-44; first compound 0.6325 µM", "value": 0.592}, {"measurement": "relative viability", "setting": "HCC-44; first compound 2 µM", "value": 0.543}, {"measurement": "relative viability", "setting": "HCC-78; first compound 0.02 µM", "value": 0.426}, {"measurement": "relative viability", "setting": "HCC-78; first compound 0.6325 µM", "value": 0.379}, {"measurement": "relative viability", "setting": "HCC-78; first compound 2 µM", "value": 0.317}, {"measurement": "relative viability", "setting": "NCI-H1563; first compound 0.02 µM", "value": 0.703}, {"measurement": "relative viability", "setting": "NCI-H1563; first compound 0.2 µM", "value": 0.663}, {"measurement": "relative viability", "setting": "NCI-H1563; first compound 0.6325 µM", "value": 0.645}, {"measurement": "relative viability", "setting": "NCI-H1563; first compound 2 µM", "value": 0.711}, {"measurement": "relative viability", "setting": "NCI-H1623; first compound 0.02 µM", "value": 0.441}, {"measurement": "relative viability", "setting": "NCI-H1623; first compound 0.2 µM", "value": 0.388}, {"measurement": "relative viability", "setting": "NCI-H1623; first compound 0.6325 µM", "value": 0.404}, {"measurement": "relative viability", "setting": "NCI-H1623; first compound 2 µM", "value": 0.357}, {"measurement": "relative viability", "setting": "NCI-H1648; first compound 0.02 µM", "value": 0.265}, {"measurement": "relative viability", "setting": "NCI-H1648; first compound 0.6325 µM", "value": 0.262}, {"measurement": "relative viability", "setting": "NCI-H1648; first compound 2 µM", "value": 0.283}, {"measurement": "relative viability", "setting": "NCI-H2087; first compound 0.02 µM", "value": 0.609}, {"measurement": "relative viability", "setting": "NCI-H2087; first compound 0.2 µM", "value": 0.393}, {"measurement": "relative viability", "setting": "NCI-H2087; first compound 0.6325 µM", "value": 0.953}, {"measurement": "relative viability", "setting": "NCI-H2087; first compound 2 µM", "value": 0.742}, {"measurement": "relative viability", "setting": "NCI-H322M; first compound 0.02 µM", "value": 0.56}, {"measurement": "relative viability", "setting": "NCI-H322M; first compound 0.2 µM", "value": 0.499}, {"measurement": "relative viability", "setting": "NCI-H322M; first compound 0.6325 µM", "value": 0.449}, {"measurement": "relative viability", "setting": "NCI-H322M; first compound 2 µM", "value": 0.275}]}]}
